Calls of active or inactive are those of the source. The calls are words filed in the database; no cut-off is given here.
Legend:
[1] = Antioxidant activity assessed as trolox equivalent of ORAC radical scavenging activity by ORAC-FL assay; type: functional
[2] = molecular target: T1, Acetylcholinesterase (Rattus norvegicus, UniProt P37136); assay: Inhibition of rat cortex AChE using acetylthiocholine as substrate incubated for 15 mins by DTNB reagent based Ellman's method; type: tissue-based
T1 sequence (P37136 whole entry): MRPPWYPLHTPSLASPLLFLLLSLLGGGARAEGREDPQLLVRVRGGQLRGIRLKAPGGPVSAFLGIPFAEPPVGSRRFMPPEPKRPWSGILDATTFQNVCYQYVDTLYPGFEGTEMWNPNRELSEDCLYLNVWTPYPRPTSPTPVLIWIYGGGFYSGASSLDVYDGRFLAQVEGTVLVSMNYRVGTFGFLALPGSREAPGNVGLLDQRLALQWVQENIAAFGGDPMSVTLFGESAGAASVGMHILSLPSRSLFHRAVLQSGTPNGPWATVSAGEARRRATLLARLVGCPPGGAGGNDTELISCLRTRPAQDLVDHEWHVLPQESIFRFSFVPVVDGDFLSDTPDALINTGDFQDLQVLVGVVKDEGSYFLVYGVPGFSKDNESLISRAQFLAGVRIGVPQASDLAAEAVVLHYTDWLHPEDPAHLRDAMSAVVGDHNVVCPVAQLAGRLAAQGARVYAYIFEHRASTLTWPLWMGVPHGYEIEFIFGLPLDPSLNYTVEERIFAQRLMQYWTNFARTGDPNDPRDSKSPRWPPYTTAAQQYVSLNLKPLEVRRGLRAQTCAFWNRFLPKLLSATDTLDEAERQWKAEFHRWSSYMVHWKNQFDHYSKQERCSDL

[3] = species on record: Rattus norvegicus; assay: Selectivity index, ratio of IC50 for inhibition of rat serum butyrylcholine esterase to IC50 for inhibition of rat cortex AChE
[4] = molecular target: T2, Acetylcholinesterase (Homo sapiens, UniProt P22303); assay: Inhibition of human erythrocyte AChE using acetylthiocholine as substrate incubated for 15 mins by DTNB reagent based Ellman's method; type: cell-based
[5] = species on record: Homo sapiens; assay: Selectivity index, ratio of IC50 for inhibition of human serum BuChE to IC50 for inhibition of human erythrocyte AChE
[6] = molecular target: T2, Acetylcholinesterase; assay: Pseudo-irreversible inhibition of human AChE assessed as restoration of enzyme activity at 0.1 time of IC50 concentration incubated for 120 mins by dilution method relative to control; parameters: scale not given: the % may be the effect or the level left
[7] = molecular target: Amyloid-beta precursor protein (Homo sapiens) (UniProt P05067); assay: Inhibition of amyloid beta (1 to 42) (unknown origin) self-induced fibril formation at 25 uM incubated for 24 hrs by transmission electron microscopic analysis
[8] = Effect on tau protein expression in pRK5-GFP-Tau plasmid transfected mouse HT-22 cells assessed as reduction in fluorescence intensity at 5 uM incubated for 24 hrs by fluorescence microscopic analysis (reference value: 36.8); type: functional
[9] = Effect on tau protein expression in pRK5-GFP-Tau plasmid transfected mouse HT-22 cells assessed as reduction in fluorescence intensity at 10 uM incubated for 24 hrs by fluorescence microscopic analysis (reference value: 36.8); type: functional
[10] = Effect on tau protein expression in pRK5-GFP-Tau plasmid transfected mouse HT-22 cells assessed as reduction in fluorescence intensity at 20 uM incubated for 24 hrs by fluorescence microscopic analysis (reference value: 36.8); type: functional
[11] = test system: HT-22; assay: Effect on tau protein expression in pRK5-GFP-Tau plasmid transfected mouse HT-22 cells assessed as fluorescence intensity by measuring decrease in GFP level incubated for 24 hrs by western blot analysis; type: functional, cell-based; conditions: dose 5-20 µM, DDE = dose-dependent effect
[12] = Effect on tau protein expression in pRK5-GFP-Tau P301L plasmid transfected mouse HT-22 cells assessed as reduction in fluorescence intensity at 10 uM by fluorescence microscopic analysis (reference value: 35.0); type: functional
[13] = Effect on tau protein expression in pRK5-GFP-Tau P301L plasmid transfected mouse HT-22 cells assessed as reduction in fluorescence intensity at 20 uM by fluorescence microscopic analysis (reference value: 35.0); type: functional
[14] = test system: HT-22; assay: Effect on tau protein expression in pRK5-GFP-Tau P301L plasmid transfected mouse HT-22 cells assessed as fluorescence intensity by measuring decrease in GFP level by western blot analysis; type: functional, cell-based; conditions: dose 5-20 µM, DDE = dose-dependent effect
[15] = Effect on APP protein expression in pEGFP-N1-APP plasmid transfected mouse HT-22 cells assessed as decrease in fluorescence intensity at 10 uM incubated for 24 hrs by fluorescence microscopic analysis (reference value: 30.7); type: functional
[16] = Effect on APP protein expression in pEGFP-N1-APP plasmid transfected mouse HT-22 cells assessed as decrease in fluorescence intensity at 20 uM incubated for 24 hrs by fluorescence microscopic analysis (reference value: 30.7); type: functional
[17] = test system: HT-22; assay: Effect on APP protein expression in pEGFP-N1-APP plasmid transfected mouse HT-22 cells assessed as fluorescence intensity by measuring decrease in GFP level incubated for 24 hrs by western blot analysis; type: functional, cell-based; conditions: dose 5-20 µM, DDE = dose-dependent effect
[18] = test system: BV-2; assay: Cytotoxicity against mouse BV-2 cells assessed as increase in cell viability at 5 to 10 uM by MTT assay; type: toxicity, cell-based; conditions: bv-2, 10 µM, dose 5-10 µM
[19] = test system: PC-12; assay: Cytotoxicity against rat PC-12 cells assessed as reduction in cell viability measured upto 40 uM incubated for 72 hrs by MTT assay; type: toxicity, cell-based; conditions: pc-12, 72 h
[20] = test system: PC-12; assay: Neuroprotective activity against H2O2-induced cytotoxicity in rat PC-12 cells assessed as increase in cell viability at 5 uM by MTT assay relative to control; type: functional
[21] = test system: PC-12; assay: Neuroprotective activity against H2O2-induced cytotoxicity in rat PC-12 cells assessed as increase in cell viability at 10 uM by MTT assay relative to control; type: functional
[22] = Metal chelating activity assessed as Al3+-compound complex formation by measuring maximum absorption wavelength shift in the presence of AlCl3 by UV-visible spectrometric analysis
[23] = Inhibition of LPS-induced NO production in mouse BV-2 cells at 5 uM by Griess reaction method relative to control; type: functional
[24] = Inhibition of LPS-induced TNFalpha production in mouse BV-2 cells assessed as TNFalpha level at 5 uM by ELISA analysis; type: functional
[25] = Inhibition of LPS-induced TNFalpha production in mouse BV-2 cells assessed as TNFalpha level at 5 uM by ELISA analysis relative to control; type: functional
[26] = Inhibition of LPS-induced TNFalpha production in mouse BV-2 cells assessed as TNFalpha level at 10 uM by ELISA analysis relative to control; type: functional
[27] = test system: L02; assay: Cytotoxicity against human L02 cells assessed as decrease in cell viability at 40 uM by MTT assay relative to control; type: toxicity, cell-based; conditions: l02, 40 µM
[28] = test system: L02; assay: Hepatoprotective activity against H2O2-induced cytotoxicity in human L02 cells assessed as increase in cell viability at 10 uM by MTT assay; type: functional
[29] = test system: L02; assay: Hepatoprotective activity against H2O2-induced cytotoxicity in human L02 cells assessed as increase in cell viability at 20 uM by MTT assay; type: functional
[30] = Permeability of compound at 100 ug/mL by PAMPA-BBB assay

T2 sequence (P22303 whole entry): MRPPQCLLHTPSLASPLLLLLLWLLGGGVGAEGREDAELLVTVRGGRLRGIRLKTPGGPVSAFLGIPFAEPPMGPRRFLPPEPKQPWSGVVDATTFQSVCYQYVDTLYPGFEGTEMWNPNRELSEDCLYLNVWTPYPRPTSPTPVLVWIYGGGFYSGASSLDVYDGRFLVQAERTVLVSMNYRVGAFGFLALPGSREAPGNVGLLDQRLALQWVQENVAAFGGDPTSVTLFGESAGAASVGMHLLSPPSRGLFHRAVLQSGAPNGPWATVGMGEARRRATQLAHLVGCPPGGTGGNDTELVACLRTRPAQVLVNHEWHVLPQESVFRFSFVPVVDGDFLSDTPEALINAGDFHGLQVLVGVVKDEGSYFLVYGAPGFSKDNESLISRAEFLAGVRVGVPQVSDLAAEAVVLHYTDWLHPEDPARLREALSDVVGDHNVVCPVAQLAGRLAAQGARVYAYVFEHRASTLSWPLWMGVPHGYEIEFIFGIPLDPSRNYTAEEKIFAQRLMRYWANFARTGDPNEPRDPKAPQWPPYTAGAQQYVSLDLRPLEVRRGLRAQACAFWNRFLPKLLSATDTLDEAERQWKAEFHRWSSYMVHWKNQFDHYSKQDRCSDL
Sequence of Amyloid-beta precursor protein (Homo sapiens) (P05067 whole entry): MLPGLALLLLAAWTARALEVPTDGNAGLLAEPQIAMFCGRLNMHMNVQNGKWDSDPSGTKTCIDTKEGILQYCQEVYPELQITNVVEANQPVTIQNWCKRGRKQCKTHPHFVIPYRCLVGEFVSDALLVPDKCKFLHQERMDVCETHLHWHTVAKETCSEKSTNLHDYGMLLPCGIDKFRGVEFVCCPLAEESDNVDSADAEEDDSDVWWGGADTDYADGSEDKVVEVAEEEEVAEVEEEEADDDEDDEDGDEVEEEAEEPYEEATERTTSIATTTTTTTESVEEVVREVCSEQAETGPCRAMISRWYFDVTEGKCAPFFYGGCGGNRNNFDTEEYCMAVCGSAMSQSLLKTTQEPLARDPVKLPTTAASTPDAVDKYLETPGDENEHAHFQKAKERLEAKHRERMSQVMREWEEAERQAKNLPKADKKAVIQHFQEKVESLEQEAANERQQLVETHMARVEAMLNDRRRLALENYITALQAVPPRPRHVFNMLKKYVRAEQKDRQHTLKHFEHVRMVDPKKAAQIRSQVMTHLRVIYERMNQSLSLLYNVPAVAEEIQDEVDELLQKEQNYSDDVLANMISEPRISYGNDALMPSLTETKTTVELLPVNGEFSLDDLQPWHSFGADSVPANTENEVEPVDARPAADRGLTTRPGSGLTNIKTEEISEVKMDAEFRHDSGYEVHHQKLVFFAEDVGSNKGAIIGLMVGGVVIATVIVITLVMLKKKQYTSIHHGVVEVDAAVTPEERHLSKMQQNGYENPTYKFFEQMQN

For `CCN(C)C(=O)Oc1ccc(C2CC(=O)c3c(O)cc(OC(=O)N(C)CC)cc3O2)cc1` (stereo not given), the Activity [1] was 1, the IC50 [2] was 6.2 µM and the Ratio IC50 [3] was 4.9. It also gave an IC50 [4] of 9.7 µM, a Ratio IC50 [5] of 2.1 and an Activity [6] of 81.7%. For the same molecule, the inhibition [7] was “Active”, the Flu intensity [8] was 25.9 and the Flu intensity [9] was 19. For the same molecule, the Flu intensity [10] was 6.48, the Activity [11] was “Dde” and the Flu intensity [12] was 9.28. The Flu intensity [13] was 3.88, the Activity [14] was “Dde” and the Flu intensity [15] was 15.5. The Flu intensity [16] was 15.5, the Activity [17] was “Dde” and the Activity [18] was “Non-Toxic”. The Activity [19] was “Non-Toxic”, the Activity [20] was 63.8% and the Activity [21] was 70.2%. For the same molecule, the Activity [22] was “Active”, the inhibition at 5 µM [23] was 41.7% and the Activity [24] was 848 pg/mL. It also gave an inhibition at 5 µM [25] of 50.1%, an inhibition at 10 µM [26] of 68.7% and an Activity [27] of 73.2%. For the same molecule, the Activity [28] was 68.7%, the Activity [29] was 77.3% and the Papp at 100 ug/mL [30] was 16.8 ×10⁻⁶ cm/s.

From ChEMBL document CHEMBL5143570, “Development of naringenin-O-carbamate derivatives as multi-target-directed liagnds for the treatment of Alzheimer's disease” (Bioorg Med Chem Lett, 2022)
